Test results published in USRE37781E1, “Substituted cyclic carbonyls and derivatives thereof useful as retroviral protease inhibitors” (DuPont Pharmaceuticals Company, priority 1991, dated 2002).
Like-named read-outs stand apart in the source and are kept apart here.

Legend:
HIV-1 (RF) in MT-2 cells = assay: microbe, parasite or virus in culture; format: cell-based; details: Table 2d
Procedure: DNA Plasmids and in vitro RNA transcripts:
Plasmid pDAB 72 containing both gag and pol sequences of BH10 (bp 113-1816) cloned into PTZ 19R was prepared according to Erickson-Viitanen et al. AIDS Research and Human Retroviruses 1989, 5, 577. The plasmid was linearized with Bam HI prior to the generation of in vitro RNA transcripts using the Riboprobe Gemini system II kit (Promega) with T7 RNA polymerase. Synthesized RNA was purified by treatment with RNase free DNAse (Promega), phenol-chloroform extraction, and ethanol precipitation. RNA transcripts were dissolved in water, and stored at −70° C. The concentration of RNA was determined from the A260.
Biotinylated capture probes were purified by HPLC after synthesis on an Applied Biosystems (Foster City, Calif.) DNA synthesizer by addition of biotin to the 5′ terminal end of the oligonucleotide, using the biotin-phosphoramidite reagent of Cocuzza, Tet. Lett. 1989, 30, 6287. The gag biotinylated capture probe (5-biotin-[…] 3′) was complementary to nucleotides 889-912 of HXB2 and the pol biotinylated capture probe (5′-biotin-[…] 3′) was complementary to nucleotides 2374-2395 of HXB2. Alkaline phosphatase conjugated oligonucleotides used as reporter probes were prepared by Syngene (San Diego, Calif.). The pol reporter probe (5′ […] 3′) was complementary to nucleotides 2403-2425 of HXB2. The gag reporter probe (5′ […] 3′) was complementary to nucleotides 950-973 of HXB2. All nucleotide positions are those of the GenBank Genetic Sequence Data Bank as accessed through the Genetics Computer Group Sequence Analysis Software Package (Devereau Nucleic Acids Research 1984, 12, 387). The reporter probes were prepared as 0.5μM stocks in 2× SSC (0.3M NaCl, 0.03M sodium citrate), 0.05M Tris pH 8.8, 1 mg/mL BSA. The biotinylated capture probes were prepared as 10 μM stocks in water.
Streptavidin coated plates:
Nunc-immunomodule microtiter plate strips were coated by addition of 200 μL of streptavidin (30 ug/mL, Scripps, La Jolla, Calif.) in freshly prepared 10 mM sodium carbonate (pH 9.6). Plates were incubated overnight at 4° C. Streptavidin solution was aspirated from the wells and a blocking buffer composed of phosphate buffered saline (PBS), 20 mg/mL bovine serum albumin (crystalline, nuclease and protease free, Calbiochem) and 100 mg/mL lactose (Sigma) was added to the plates for 3 hrs at room temperature. Blocking buffer was removed from the wells, which were allowed to dry overnight at room temperature and subsequently stored at 4° C. in zip lock bags with desiccant. For the majority of the compound evaluation experiments, streptavidin coated plates were obtained from Du Pont Biotechnology Systems (Boston, Mass.).
MT-2, CEM, and H9 cells were maintained in RPMI 1640 supplemented with 5% fetal calf serum (FCS), 2 mM L-glutamine and 50 μg/mL gentamycin, all from Gibco. Laboratory strains of HIV-1 (RF, MN and IIIB) were propagated in H9 cells in the same medium. Virus stocks were prepared approximately 1 month after acute infection of H9 cells by clarification of the tissue culture medium and storage of aliquots at −70° C. […] Each aliquot of virus stock used for infection was thawed only once. In some cases, infected H9 cells were shifted to Dulbecco's modified Eagle's medium 3-10 days before collection of virus in order to generate virus stocks in medium with low biotin content. Clinical isolates of HIV that had been passaged once in MT-2 cells were used to infect fresh MT-2 cells in RPMI medium. Three days after infection, cells were pelleted, resuspended and culture continued in Dulbecco's modified Eagle's medium as above. Virus stocks of clinical isolates were prepaid 10-15 days after infection when cytopathic effects were apparent in the culture.

[1] = target: single-chain tethered dimer of HIV protease (Human immunodeficiency virus 1, UniProt P04585); assay: biochemical; format: biochemical; set-up: fused on or other part: A second copy of the same protease unit is joined to the first by a short peptide tether, giving one polypeptide
[2] = Table 2d; HIV protease inhibition, HPLC method; read-out: HPLC K1

SMILES | IC90 (HIV-1 (RF) in MT-2 cells; HIV RNA assay) | Ki [1, 2] [nM] | further results
Nc1cccc(CN2C(=O)N(Cc3ccc(CO)cc3)C(Cc3ccccc3)C(O)C(O)C2Cc2ccccc2)c1 (centres unmarked) [15A] | – | – | IC90 (HIV-1 (RF) in MT-2 cells; Human immunodeficiency virus 1, MT2, 48 h, class symbols, read-out: IC90): < 10 µg/mL; Ki ([1]; read-out: HPLC K1; Table 2d; class symbols): < 10 nM
CCCNC(=NO)c1cccc(CN2C(=O)N(Cc3cccc(C(=NO)NCCC)c3)C(Cc3ccccc3)C(O)C(O)C2Cc2ccccc2)c1 (centres unmarked) [15BA] | +++ (+++=<10 μg/mL) | < 10 | –
O=C1N(Cc2ccc(O)cc2)C(Cc2ccccc2)C(O)C(O)C(Cc2ccccc2)N1Cc1cccc(-c2cc[nH]n2)c1 (centres unmarked) [15CA] | – | – | IC90 (HIV-1 (RF) in MT-2 cells; Human immunodeficiency virus 1, MT2, 48 h, HIV RNA assay, read-out: IC90): < 10 µg/mL; Ki ([1]; read-out: HPLC K1; Table 2d; HIV protease inhibition, HPLC method): < 10 nM
O=C(NCc1ccccn1)c1cccc(CN2C(=O)N(Cc3cccc(-c4cc[nH]n4)c3)C(Cc3ccccc3)C(O)C(O)C2Cc2ccccc2)c1 (centres unmarked) [15CB] | +++ (+++=<10 μg/mL) | < 10 | –
CC(C)(CO)CCCCN1C(=O)N(CCCCC(C)(C)CO)C(Cc2ccccc2)C(O)C(O)C1Cc1ccccc1 (centres unmarked) [15CP] | +++ (+++=<10 μg/mL) | 10 to 1000 | –
O=C1N(Cc2ccc3[nH]cnc3c2)C(Cc2ccccc2)C(O)C(O)C(Cc2ccccc2)N1Cc1ccc2[nH]cnc2c1 (centres unmarked) [15CS] | ++ (++=10 to 100 μg/mL) | 10 to 1000 | –
O=C1N(Cc2ccc3[nH]nnc3c2)C(Cc2ccccc2)C(O)C(O)C(Cc2ccccc2)N1Cc1ccc2[nH]nnc2c1 (centres unmarked) [15CT] | +++ (+++=<10 μg/mL) | < 10 | –
O=C1N(Cc2ccc3c(c2)NS(=O)(=O)N3)C(Cc2ccccc2)C(O)C(O)C(Cc2ccccc2)N1Cc1ccc2c(c1)NS(=O)(=O)N2 (centres unmarked) [15CW] | ++ (++=10 to 100 μg/mL) | < 10 | –
O=C1Nc2ccc(CN3C(=O)N(Cc4ccc5c(c4)C(=NO)C(=O)N5)C(Cc4ccccc4)C(O)C(O)C3Cc3ccccc3)cc2C1=NO (centres unmarked) [15DB] | +++ (+++=<10 μg/mL) | < 10 | –
O=C1N(Cc2ccc3oc(=O)[nH]c3c2)C(Cc2ccccc2)C(O)C(O)C(Cc2ccccc2)N1Cc1ccc2oc(=O)[nH]c2c1 (centres unmarked) [15DC] | +++ (+++=<10 μg/mL) | < 10 | –
O=C1Cc2cc(CN3C(=O)N(Cc4ccc5c(c4)CC(=O)N5)C(Cc4ccccc4)C(O)C(O)C3Cc3ccccc3)ccc2N1 (centres unmarked) [15DD] | +++ (+++=<10 μg/mL) | < 10 | –
Nc1n[nH]c2ccc(CN3C(=O)N(Cc4ccc5[nH]nc(N)c5c4)C(Cc4ccccc4)C(O)C(O)C3Cc3ccccc3)cc12 (centres unmarked) [15DF] | +++ (+++=<10 μg/mL) | < 10 | –
Nc1noc2ccc(CN3C(=O)N(Cc4ccc5onc(N)c5c4)C(Cc4ccccc4)C(O)C(O)C3Cc3ccccc3)cc12 (centres unmarked) [15DG] | +++ (+++=<10 μg/mL) | < 10 | –
CNc1n[nH]c2ccc(CN3C(=O)N(Cc4ccc5[nH]nc(NC)c5c4)C(Cc4ccccc4)C(O)C(O)C3Cc3ccccc3)cc12 (centres unmarked) [15DH] | +++ (+++=<10 μg/mL) | < 10 | –
O=C1N(Cc2ccc3[nH]nc(Cl)c3c2)C(Cc2ccccc2)C(O)C(O)C(Cc2ccccc2)N1Cc1ccc2[nH]nc(Cl)c2c1 (centres unmarked) [15DI] | +++ (+++=<10 μg/mL) | < 10 | –
CCNc1n[nH]c2ccc(CN3C(=O)N(Cc4ccc5[nH]nc(NCC)c5c4)C(Cc4ccccc4)C(O)C(O)C3Cc3ccccc3)cc12 (centres unmarked) [15DJ] | +++ (+++=<10 μg/mL) | < 10 | –
O=C1N(Cc2ccccc2)C(Cc2ccccc2)C(O)C(O)C(Cc2ccccc2)N1Cc1ccc2[nH]nnc2c1 (centres unmarked) [15DN] | +++ (+++=<10 μg/mL) | < 10 | –
O=C1N(Cc2ccc3ccccc3c2)C(Cc2ccccc2)C(O)C(O)C(Cc2ccccc2)N1Cc1ccc2[nH]nnc2c1 (centres unmarked) [15DO] | +++ (+++=<10 μg/mL) | < 10 | –
O=C1N(Cc2ccc3[nH]nnc3c2)C(Cc2ccccc2)C(O)C(O)C(Cc2ccccc2)N1CC1CC1 (centres unmarked) [15DP] | +++ (+++=<10 μg/mL) | < 10 | –
